Non-standard residues stand in square brackets, D forms with d. Residues, ends and D or L forms follow the SMILES beside them. *: point of attachment. dPhe(4-Cl) = N[C@H](Cc1ccc(Cl)cc1)C(=O)O; Pyrimidin2yl(4,6-Me2) = Cc1cc(C)nc(*)n1; d2Nal = N[C@H](Cc1ccc2ccccc2c1)C(=O)O; Lys(iPr) = CC(C)NCCCC[C@H](N)C(=O)O; NH(4-MeO-phenyl) = COc1ccc(N*)cc1; d3Pal = N[C@H](Cc1cccnc1)C(=O)O; Nicotinoyl = O=C(c1cccnc1)*; Picolinoyl = O=C(c1ccccn1)*; Nle = CCCC[C@H](N)C(=O)O; Orn = NCCC[C@H](N)C(=O)O
Tested on: anaesthesized rats
Test: wheal test, intradermal injection
Assay type: in vivo, rat
Details: 10 ug peptide intradermally; for Wheal: Table I
Description: The antiovulatory activity, AOA, in rats was determined as described by Humphries et al. (12). Antiovulation assays were performed by counting, on estrus, the number of ova shed by 4-day cycling rats after a single sc injection of the LH-RH analogue in corn oil was administered between 12 and 12:30 p.m. on […]. The control rats received 0.3 mL of the vehicle. The wheal test was performed by intradermally injecting 10 ug of peptide in 100 ul of saline into anaesthesized rats, measuring the ideally circular wheal response and calculating the area. The in vitro histamine release test was done as described by Karten et al. (4). A suspension of rat mast cells was added to increasing concentrations of peptide and the mixture was incubated for a few minutes followed by centrifugation to collect the histamine in the supernatant. A PIPES (piperazine-N,N'-bis[2-ethanesulfonic acid]) medium buffered at pH 7.4 containing NaCl 119 mM, KCl 5 mM, PIPES 25 mM, NaOH 40 mM, glucose 5.6 mM, CaCl2 1 mM, and 0.1% bovine serum albumin was used. This was designated as PIPES AC. Peptides were dissolved in double distilled H2 O at a concentration of 2 mg/ml and stored at -20° C. They were thawed just prior to testing, diluted in PIPES AC and prewarmed for five minutes at 37° C. Peptides studied were stable to heating at 56° C. for two hours, and to freezing and thawing.

| Wheal Area [mm^2 /10 μg] | Wheal [mm^2 /10] | SMILES |
| --- | --- | --- |
| 107.0 ± 6.0 | – | CCCC[C@H](NC(=O)[C@@H](CCCCNC(=O)c1ccccn1)NC(=O)[C@H](CCCCNC(=O)c1ccccn1)NC(=O)[C@H](CO)NC(=O)[C@@H](Cc1cccnc1)NC(=O)[C@@H](Cc1ccc(Cl)cc1)NC(=O)[C@@H](Cc1ccc2ccccc2c1)NC(C)=O)C(=O)N[C@@H](CCCCNC(C)C)C(=O)N1CCC[C@H]1C(=O)N[C@H](C)C(N)=O [compound 25988] (Ac-[d2Nal][dPhe(4-Cl)][d3Pal]SK(Picolinoyl)[dK](Picolinoyl)[Nle][Lys(iPr)]P[dA]-NH2) |
| 110.7 ± 2.3 | – | CC[C@H](C)[C@H](NC(=O)[C@@H](CCCCNC(=O)c1ccccn1)NC(=O)[C@H](CCCCNC(=O)c1ccccn1)NC(=O)[C@H](CO)NC(=O)[C@@H](Cc1cccnc1)NC(=O)[C@@H](Cc1ccc(Cl)cc1)NC(=O)[C@@H](Cc1ccc2ccccc2c1)NC(C)=O)C(=O)N[C@@H](CCCCNC(C)C)C(=O)N1CCC[C@H]1C(=O)N[C@H](C)C(N)=O [compound 26020] (Ac-[d2Nal][dPhe(4-Cl)][d3Pal]SK(Picolinoyl)[dK](Picolinoyl)I[Lys(iPr)]P[dA]-NH2) |
| – | 110 ± 3 | CC(=O)N[C@H](Cc1ccc2ccccc2c1)C(=O)N[C@H](Cc1ccc(Cl)cc1)C(=O)N[C@H](Cc1cccnc1)C(=O)N[C@@H](CO)C(=O)N[C@@H](CCCNc1nc(C)cc(C)n1)C(=O)N[C@H](CCCCNC(=O)c1cccnc1)C(=O)N[C@@H](CC(C)C)C(=O)N[C@@H](CCCCNC(C)C)C(=O)N1CCC[C@H]1C(=O)N[C@H](C)C(N)=O [compound 25506] (Ac-[d2Nal][dPhe(4-Cl)][d3Pal]S[Orn](Pyrimidin2yl(4,6-Me2))[dK](Nicotinoyl)L[Lys(iPr)]P[dA]-NH2) |
| – | 120 ± 7 | CC(=O)N[C@H](Cc1ccc2ccccc2c1)C(=O)N[C@H](Cc1ccc(Cl)cc1)C(=O)N[C@H](Cc1cccnc1)C(=O)N[C@@H](CO)C(=O)N[C@@H](CCCCNC(=O)c1cccnc1)C(=O)N[C@H](CCCCNC(=O)c1ccccn1)C(=O)N[C@@H](CC(C)C)C(=O)N[C@@H](CCCCNC(C)C)C(=O)N1CCC[C@H]1C(=O)N[C@H](C)C(N)=O [compound 25589] (Ac-[d2Nal][dPhe(4-Cl)][d3Pal]SK(Nicotinoyl)[dK](Picolinoyl)L[Lys(iPr)]P[dA]-NH2) |
| – | 147.7 | CC[C@H](C)[C@H](NC(=O)[C@H](CO)NC(=O)[C@@H](Cc1cccnc1)NC(=O)[C@@H](Cc1ccc(Cl)cc1)NC(=O)[C@@H](Cc1ccc2ccccc2c1)NC(C)=O)C(=O)N[C@H](CCCCNC(=O)c1cccnc1)C(=O)N[C@@H](CC(C)C)C(=O)N[C@@H](CCCCNC(C)C)C(=O)N1CCC[C@H]1C(=O)N[C@H](C)C(N)=O [compound 25144] (Ac-[d2Nal][dPhe(4-Cl)][d3Pal]SI[dK](Nicotinoyl)L[Lys(iPr)]P[dA]-NH2) |
| – | 139.7 ± 0 | CC(=O)N[C@H](Cc1ccc2ccccc2c1)C(=O)N[C@H](Cc1ccc(Cl)cc1)C(=O)N[C@H](Cc1cccnc1)C(=O)N[C@@H](CO)C(=O)N[C@@H](Cc1c[nH]cn1)C(=O)N[C@H](CCCCNC(=O)c1cccnc1)C(=O)N[C@@H](CC(C)C)C(=O)N[C@@H](CCCNC(=N)N)C(=O)N1CCC[C@H]1C(=O)N[C@H](C)C(N)=O [compound 24545] (Ac-[d2Nal][dPhe(4-Cl)][d3Pal]SH[dK](Nicotinoyl)LRP[dA]-NH2) |
| – | 113 ± 7 | COc1ccc(NC(=O)CC[C@@H](NC(=O)[C@H](CCCCNC(=O)c2cccnc2)NC(=O)[C@H](CO)NC(=O)[C@@H](Cc2cccnc2)NC(=O)[C@@H](Cc2ccc(Cl)cc2)NC(=O)[C@@H](Cc2ccc3ccccc3c2)NC(C)=O)C(=O)N[C@@H](CC(C)C)C(=O)N[C@@H](CCCCNC(C)C)C(=O)N2CCC[C@H]2C(=O)N[C@H](C)C(N)=O)cc1 [compound 25588] (Ac-[d2Nal][dPhe(4-Cl)][d3Pal]SK(Nicotinoyl)[dE](NH(4-MeO-phenyl))L[Lys(iPr)]P[dA]-NH2) |

From patent US5763404A, “Methods for using LHRH antagonists with low histamine release” (priority 1995, dated 1998)
